# US12410187B2, “Fused tricyclic compounds useful as anticancer agents” (ASTRAZENECA AB, priority 2019, dated 2025)
# Where two headings read alike, the source gives them in different places.
# Target: T1, KRasG12C (Homo sapiens, UniProt P01116, G12C)
# T1 construct: biotin (biotinylated); made in house
# Test: KRasG12C functional assay (HTRF/FRET nucleotide exchange and Raf RBD binding)
# Type: biochemical
# Conditions: samples incubated for 4 hrs, FRET readout, single experiment or average of two or more
# Description: All enzyme and substrate solutions were prepared in assay buffer containing 20 mM HEPES (pH 7.5), 5 mM MgCl2, 150 mM NaCl, and 0.01% Tween 20. […] In a separate mix 20 nM GST-Raf Ras binding domain (GST-Raf RBD, purified in house) and 4 μg/ml anti-GST XL665 antibody (Cisbio) was prepared in assay buffer containing 50 mM Potassium Fluoride and 0.05 mg/ml BSA and equilibrated for 4 hours before adding 0.6 μM Guanosine 5′-[γ-thio]triphosphate (GTPγS, Sigma) and 0.08 μM SOS (purified in house). 5 μl of the GST-RAF RBD mix was then dispensed into each well of the assay plate. […] This is detected simultaneously via the specific binding interaction between active GTPγS KRas^G12C with GST-Raf RBD which brings the europium and XL665 into close proximity enabling an increased FRET signal to be detected on a Pherastar (BMG) plate reader equipped with the HTRF filter module. […] IC50 values were calculated from normalised dose-response response FRET data curve fitted in Genedata screener (Basel, Switzerland).
# [1] = KRasG12C functional assay IC50, GDP loaded biotinylated KRasG12C
# [2] = GDP loaded biotinylated KRasG12C, read-out: KRasG12C functional assay IC50
# T1 sequence (P01116 1-188 isoform P01116-2 G12C): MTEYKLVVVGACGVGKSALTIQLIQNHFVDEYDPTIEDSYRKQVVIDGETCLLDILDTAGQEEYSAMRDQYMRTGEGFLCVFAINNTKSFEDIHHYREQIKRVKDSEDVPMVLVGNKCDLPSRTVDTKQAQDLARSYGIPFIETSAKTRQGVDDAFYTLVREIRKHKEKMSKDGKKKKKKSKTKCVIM
SMILES,IC50 [1] [µM],IC50 [2] [µM]
"C=CC(=O)N1CCN2C(=O)c3ccc(-c4c(C)ccc5[nH]ncc45)c(Cl)c3OC[C@@H]2C1 (single isomer, unassigned) [Example 1]",73,–
"C=CC(=O)N1CCN2C(=O)c3ccc(-c4c(C)ccc5[nH]ncc45)c(Cl)c3OC[C@@H]2C1 (single isomer, unassigned) [Example 2]",4.5,–
"C=CC(=O)N1CCN2C(=O)c3ccc(-c4c(C)ccc5[nH]ncc45)c(Cl)c3OC[C@H]2C1 (single isomer, unassigned) [Example 7]",82,–
"C=CC(=O)N1CCN2Cc3ccc(-c4c(C)ccc5[nH]ncc45)c(Cl)c3OC[C@H]2C1 (single isomer, unassigned) [Example 9]",26,–
"C=CC(=O)N1CCN2Cc3cc(F)c(-c4c(C)ccc5[nH]cnc45)c(Cl)c3OC[C@H]2C1 (single isomer, unassigned) [Example 18]",–,28.7
"C=CC(=O)N1CCN2Cc3cc(F)c(-c4c(C)ccc5[nH]cnc45)c(Cl)c3OC[C@H]2C1 (single isomer, unassigned) [Example 19]",–,0.146
"C=CC(=O)N1CCN2Cc3cc(F)c(-c4c(C)ccc5cc[nH]c(=O)c45)c(Cl)c3OC[C@H]2C1 (single isomer, unassigned) [Example 28]",–,17
"C=CC(=O)N1CCN2Cc3cc(F)c(-c4c(C)ccc5cc[nH]c(=O)c45)c(Cl)c3OC[C@H]2C1 (single isomer, unassigned) [Example 29]",–,0.164
"C=CC(=O)N1CCN2C(=O)c3ccc(-c4c(C)ccc5[nH]ncc45)c(Cl)c3NC[C@H]2C1 (single isomer, unassigned) [Example 32]",–,64.8
"C=CC(=O)N1CCN2C(=O)c3ccc(-c4c(C)ccc5[nH]ncc45)c(Cl)c3NC[C@H]2C1 (single isomer, unassigned) [Example 33]",–,0.998
"C=CC(=O)N1CCN2C(=O)c3ccc(-c4c(C)ccc5[nH]ncc45)c(Cl)c3N(C)C[C@H]2C1 (single isomer, unassigned) [Example 36]",–,98.2
"C=CC(=O)N1CCN2C(=O)c3ccc(-c4c(C)ccc5[nH]ncc45)c(Cl)c3N(C)C[C@H]2C1 (single isomer, unassigned) [Example 37]",–,0.273
"C=CC(=O)N1CCN2Cc3cc(F)c(-c4c(O)ccc(F)c4F)c(Cl)c3OC[C@H]2C1 (single isomer, unassigned) [Example 38]",–,40.1
"C=CC(=O)N1CCN2Cc3cc(F)c(-c4c(O)ccc(F)c4F)c(Cl)c3OC[C@H]2C1 (single isomer, unassigned) [Example 39]",–,0.123
"C=CC(=O)N1CCN2Cc3cc(F)c(-c4c(F)cccc4CO)c(F)c3OC[C@H]2C1 (single isomer, unassigned) [Example 46]",–,99.5
"C=CC(=O)N1CCN2Cc3cc(F)c(-c4c(F)cccc4CO)c(F)c3OC[C@H]2C1 (single isomer, unassigned) [Example 47]",–,1.72
"C=CC(=O)N1CCN2Cc3cc(F)c(-c4c(O)cccc4C(F)(F)F)c(F)c3OC[C@H]2C1 (single isomer, unassigned) [Example 48]",–,42.7
"C=CC(=O)N1CCN2Cc3cc(F)c(-c4c(O)cccc4CC)c(F)c3OC[C@H]2C1 (single isomer, unassigned) [Example 50]",–,99.3
"C=CC(=O)N1CCN2Cc3cc(F)c(-c4c(O)cccc4CC)c(F)c3OC[C@H]2C1 (single isomer, unassigned) [Example 51]",–,0.542
"C=CC(=O)N1CCN2Cc3cc(F)c(-c4c(O)cccc4C(F)F)c(F)c3OC[C@H]2C1 (single isomer, unassigned) [Example 52]",–,> 100
"C=CC(=O)N1CCN2Cc3cc(C#N)c(-c4c(O)cccc4Cl)c(F)c3OC[C@H]2C1 (single isomer, unassigned) [Example 54]",0.339,–
"C=CC(=O)N1CCN2Cc3cc(C#N)c(-c4c(O)cccc4Cl)c(F)c3OC[C@H]2C1 (single isomer, unassigned) [Example 55]",0.016,–
"C=CC(=O)N1CCN2Cc3cc(C#N)c(-c4c(O)cccc4Cl)c(Cl)c3OC[C@H]2C1 (single isomer, unassigned) [Example 56]",–,1.7
"C=CC(=O)N1CCN2Cc3cc(C#N)c(-c4c(O)cccc4Cl)c(Cl)c3OC[C@H]2C1 (single isomer, unassigned) [Example 57]",–,0.031
"C=CC(=O)N1CCN2Cc3cc(F)c(-c4c(O)cccc4Br)c(F)c3OC[C@H]2C1 (single isomer, unassigned) [Example 58]",–,11.8
"C#Cc1c2c(cc(Cl)c1-c1c(C)cccc1O)CN1CCN(C(=O)C=C)C[C@@H]1CO2 (single isomer, unassigned) [Example 62]",–,15.7
"C#Cc1c2c(cc(Cl)c1-c1c(C)cccc1O)CN1CCN(C(=O)C=C)C[C@@H]1CO2 (single isomer, unassigned) [Example 63]",–,0.12
"C#Cc1c2c(cc(F)c1-c1c(C)cccc1O)CN1CCN(C(=O)C=C)C[C@@H]1CO2 (single isomer, unassigned) [Example 64]",–,37.1

# Further lines, results first:
IC50 [1] [µM],IC50 [2] [µM],SMILES
–,25.2,"C=CC(=O)N1CCN2C(=O)c3cc(F)c(-c4c(O)cccc4F)c(Cl)c3OC[C@H]2C1 (single isomer, unassigned) [Example 12]"
–,0.066,"C=CC(=O)N1CCN2Cc3c(O)c(Cl)c(-c4c(O)cccc4F)c(Cl)c3OC[C@H]2C1 (single isomer, unassigned) [Example 13]"
–,8.19,"C=CC(=O)N1CCN2Cc3c(O)c(Cl)c(-c4c(O)cccc4F)c(Cl)c3OC[C@H]2C1 (single isomer, unassigned) [Example 14]"
–,0.043,"C=CC(=O)N1CCN2C(=O)c3cc(Cl)c(-c4c(O)cccc4F)c(Cl)c3OC[C@H]2C1 (single isomer, unassigned) [Example 20]"
–,12.9,"C=CC(=O)N1CCN2C(=O)c3cc(Cl)c(-c4c(O)cccc4F)c(Cl)c3OC[C@H]2C1 (single isomer, unassigned) [Example 21]"
–,2.58,"C=CC(=O)N1CCN2Cc3cc(C#N)c(-c4c(O)cccc4F)c(Cl)c3OC[C@H]2C1 (single isomer, unassigned) [Example 22]"
–,0.105,"C=CC(=O)N1CCN2Cc3cc(C#N)c(-c4c(O)cccc4F)c(Cl)c3OC[C@H]2C1 (single isomer, unassigned) [Example 23]"
–,43.8,"C=CC(=O)N1CCN2C(=O)c3cc(C)c(-c4c(O)cccc4F)c(Cl)c3OC[C@H]2C1 (single isomer, unassigned) [Example 24]"
–,0.068,"C=CC(=O)N1CCN2C(=O)c3cc(C)c(-c4c(O)cccc4F)c(Cl)c3OC[C@H]2C1 (single isomer, unassigned) [Example 25]"
–,1,"C=CC(=O)N1CCN2Cc3cc(Cl)c(-c4c(O)cccc4F)c(Cl)c3OC[C@H]2C1 (single isomer, unassigned) [Example 26]"
–,90.5,"C=CC(=O)N1CCN2Cc3cc(OC)c(-c4c(O)cccc4F)c(Cl)c3OC[C@H]2C1 (single isomer, unassigned) [Example 30]"
–,0.279,"C=CC(=O)N1CCN2Cc3cc(OC)c(-c4c(O)cccc4F)c(Cl)c3OC[C@H]2C1 (single isomer, unassigned) [Example 31]"
–,64.9,"C=CC(=O)N1CCN2Cc3cc(F)c(-c4c(O)cccc4Cl)c(Cl)c3OC[C@H]2C1 (single isomer, unassigned) [Example 34]"
–,4.62,"C=CC(=O)N1CCN2Cc3cc(C#N)c(-c4c(C)cccc4O)c(Cl)c3OC[C@H]2C1 (single isomer, unassigned) [Example 40]"
–,0.18,"C=CC(=O)N1CCN2Cc3cc(C#N)c(-c4c(C)cccc4O)c(Cl)c3OC[C@H]2C1 (single isomer, unassigned) [Example 41]"
> 100,–,"C=CC(=O)N1CCN2Cc3cc(F)c(-c4c(C)cccc4O)c(F)c3OC[C@H]2C1 (single isomer, unassigned) [Example 44]"
–,15.9,"C=CC(=O)N1CCN2Cc3cc(Cl)c(-c4c(C)cccc4O)c(F)c3OC[C@H]2C1 (single isomer, unassigned) [Example 60]"
–,21,"C=CC(=O)N1CCN2Cc3c(c(Cl)c(-c4c(O)cccc4F)n(C)c3=O)OC[C@H]2C1 (single isomer, unassigned) [Example 66]"
–,0.81,"C=CC(=O)N1CCN2Cc3c(c(Cl)c(-c4c(O)cccc4F)n(C)c3=O)OC[C@H]2C1 (single isomer, unassigned) [Example 67]"
–,19,"C=CC(=O)N1CCN2Cc3c(c(Cl)c(-c4c(O)cccc4F)n4cnnc34)OC[C@H]2C1 (single isomer, unassigned) [Example 70]"
–,0.539,"C=CC(=O)N1CCN2Cc3c(c(Cl)c(-c4c(O)cccc4F)n4cnnc34)OC[C@H]2C1 (single isomer, unassigned) [Example 71]"
–,0.133,"C=CC(=O)N1CCN2Cc3c(c(Cl)c(-c4c(O)cccc4F)c4cnn(C)c34)OC[C@H]2C1 (single isomer, unassigned) [Example 72]"
–,23,"C=CC(=O)N1CCN2Cc3c(c(Cl)c(-c4c(O)cccc4F)c4cnn(C)c34)OC[C@H]2C1 (single isomer, unassigned) [Example 73]"
–,0.135,"C=CC(=O)N1CCN2Cc3c(c(Cl)c(-c4c(O)cccc4F)c4cn(C)nc34)OC[C@H]2C1 (single isomer, unassigned) [Example 74]"
–,50.8,"C=CC(=O)N1CCN2Cc3c(c(Cl)c(-c4c(O)cccc4F)c4cn(C)nc34)OC[C@H]2C1 (single isomer, unassigned) [Example 75]"
